# Measured values from US20220087990A1, “APPLICATION OF RIFAMYCIN-QUINOLIZIDONE CONJUGATE MOLECULE AND PHARMACEUTICALLY ACCEPTABLE SALT THEREOF” (priority 2019, published 2022).
# Where two headings read alike, the source gives them in different places.
# Key:
# [1] = system: methicillin-resistant Staphylococcus aureus (MRSA) isolates; assay: MIC measured by agar dilution method (CLSI); assay type: cell-based; details: for MIC: Staphylococcus aureus, MRSA
# Protocol: (§1) Spontaneous mutation and minimal inhibit concentration (MIC) tested by agar dilution method, the above compounds are respectively prepared into a stock solution (100X) with a concentration 100 times the highest final concentration in corresponding solvents and used on the same day. Before use, I is further diluted with DMSO; and oxacillin, rifampicin and levofloxacin are further diluted with water.
# (§2) Bacterial isolates: Staphylococcus aureus isolates are retrieved from the −80° C. storage room of Micromyx Culture Collection, thawed, plated onto Tryptic Soy Agar+5% sheep blood (Remel; Lenexa, Kans.), and then incubated aerobically at 35° C. overnight. S. aureus ATCC 29213 (MRSA; MMX 0100) was included during testing only for the purpose of quality control. Test Media: The isolates were tested in both the agar dilution MIC assay and the spontaneous mutation assay using Mueller-Hinton Agar (MHA; BD/BBL; Lot No. 6229829 & 4216798). Inocula of each isolate were suspended in cation-adjusted Mueller-Hinton Broth (CAMHB) (BD/BBL; Lot Nos. 5257869 & 6258541). Sodium chloride (Sigma-Aldrich; Lot No. SLBL0434V) was added to CAMHB at a final concentration of 2% when testing oxacillin. Dilutions of bacterial cell suspensions for the purpose of performing colony counts were also made in CAMHB.
# (§3) MIC measured by agar dilution method: according to the recommendation from the Clinical and Laboratory Standards Institute (CLSI), the MIC value is measured by the agar dilution method. […] Each test agent was combined with molten MHA agar (50-55° C.) at a ratio of 0.2 mL of 100× test agent to 19.8 mL agar in a sterile tube, mixed gently, and then poured into a sterile petri plate (BD Falcon). Plates were allowed to solidify at room temperature. A 0.5 McFarland standard bacterial suspension was prepared, diluted 1:10 in CAMHB, and transferred to the wells of a stainless steel replicator block before stamping onto plates containing drug, resulting in 10^4 CFU/spot. After allowing the inoculum to dry on the surface of the agar, the plates were inverted, incubated aerobically at 35° C. for 20-24 hr, and inspected for growth.
# [2] = system: Staphylococcus aureus ATCC 29213; assay: MIC measured by agar dilution method, quality control strain; assay type: cell-based; details: strain 100, MSSA QC strain
# Protocol: as §1, §2, §3
# In parallel experiments, a standard bacterium suspension with a […] turbidity of 0.5 is prepared as a standard inoculum for agar dilution analysis (10^4 CFU/point). […] In this step, the broths and drugs used in the spontaneous mutation analysis are used to confirm that the concentration of the drug stock solution can inhibit the growth of the standard inoculum. The quality of the levofloxacin stock solution is controlled by a standard inoculum and levofloxacin of 8-0.008 μg/mL, and separate agar dilution analysis is performed. […]
# [3] = system: Staphylococcus aureus ATCC 29213; details: agar dilution; cited from earlier work
# [4] = system: Staphylococcus aureus ATCC 29213; assay: MIC measured by fluid broth microdilution method (quality control); assay type: cell-based; details: ATCC29213
# [5] = strain 3085, LEV^S RIF^S, agar dilution
# [6] = strain 3090, LEV^R RIF^S, agar dilution
# [7] = strain 3094, LEV^R RIF^S, agar dilution
# [8] = strain 3098, LEV^S RIF^S, agar dilution
# [9] = strain 3265, LEV^R RIF^S, agar dilution
# [10] = strain 3266, LEVR RIFS, agar dilution
# [11] = strain 3270, LEV^R RIF^S, agar dilution
# [12] = strain 3271, LEV^R RIF^S, agar dilution
# [13] = strain 3277, LEV^S RIF^S, agar dilution
# [14] = strain 3278, LEV^S RIF^S, agar dilution
# [15] = strain 6312, LEV^R RIF^S, agar dilution
# [16] = strain 6313, LEV^R RIF^S, agar dilution
# [17] = strain 6315, LEV^R RIF^S, agar dilution
# [18] = strain 6498, LEV^R RIF^S, agar dilution
# [19] = strain 6501, LEV^R RIF^S, agar dilution
# [20] = strain 6505, LEV^R RIF^S, agar dilution
# [21] = strain 7771, LEV^R RIF^S, agar dilution
# [22] = strain 7772, LEV^S RIF^S, agar dilution
# [23] = strain 7773, LEV^R RIF^S, agar dilution
# [24] = strain 7774, LEV^R RIF^S, agar dilution
# [25] = strain 7775, LEV^R, agar dilution
SMILES,"MIC [1, 5]","MIC [1, 6]","MIC [1, 7]","MIC [1, 8]","MIC [1, 9]","MIC [1, 10]","MIC [1, 11]","MIC [1, 12]","MIC [1, 13]","MIC [1, 14]","MIC [1, 15]","MIC [1, 16]","MIC [1, 17]","MIC [1, 18]","MIC [1, 19]","MIC [1, 20]","MIC [1, 21]","MIC [1, 22]","MIC [1, 23]","MIC [1, 24]",further results
Cc1onc(-c2ccccc2)c1C(=O)N[C@@H]1C(=O)N2[C@@H]1SC(C)(C)[C@@H]2C(=O)O [Oxacillin],> 8 µg/mL,> 8 µg/mL,> 8 µg/mL,> 8 µg/mL,> 8 µg/mL,> 8 µg/mL,> 8 µg/mL,> 8 µg/mL,> 8 µg/mL,> 8 µg/mL,> 8 µg/mL,> 8 µg/mL,> 8 µg/mL,> 8 µg/mL,> 8 µg/mL,> 8 µg/mL,> 8 µg/mL,> 8 µg/mL,> 8 µg/mL,> 8 µg/mL,"sensitivity of the strains (resistant / sensitive) [1]: resistant; MIC [1, 25]: > 8 µg/mL; MIC [2]: 0.25 µg/mL; MIC quality control range of CLSI [3]: 0.12 to 0.5 µg/mL"
C[C@H]1COc2c(N3CCN(C)CC3)c(F)cc3c(=O)c(C(=O)O)cn1c23 [Levofloxacin],0.25 µg/mL,32 µg/mL,> 64 µg/mL,0.25 µg/mL,64 µg/mL,64 µg/mL,4 µg/mL,4 µg/mL,0.25 µg/mL,0.25 µg/mL,16 µg/mL,16 µg/mL,> 64 µg/mL,8 µg/mL,8 µg/mL,4 µg/mL,> 64 µg/mL,0.25 µg/mL,8 µg/mL,> 64 µg/mL,"MIC ([1]; read-out: MIC over all strains under test): 0.25 to 64 µg/mL; MIC [1, 25]: 16 µg/mL; MIC [2]: 0.25 µg/mL; MIC [4]: 0.25 µg/mL"
